This note sets out measurements from patent publication US10188633B2, “Identification of small molecules that facilitate therapeutic exon skipping” (The Regents of the University of California, priority 2011, dated 2019).

Where “and” joins values, the source holds several entries; their conditions need not be identical. Equal entries are not always repeated. Where two headings read alike, the source gives them in different places.

The test system of the test is human DMD exon 50 GFP based reporter. Put plainly: BioMol high throughput screen in Ex50-GFP reporter C2C12 myoblasts, with or without AON6. The settings on record: for Average Fluorescence (n = 3): average of 3 replicate plates. The class given is cell-based, mouse. The text has this:
Small molecule libraries were screened for exon skipping promoting activity in C2C12 myoblasts expressing a human DMD exon 50 GFP based reporter. […] In the reporter cells, successful skipping of DMD exon 50 creates in-frame GFP expression. Number of cells that were fluorescing was quantified using a high content cell imager in 384 well plate format. Fluorescence was normalized by subtracting the average fluorescence value of the carrier (DMSO) controls. Fluorescence readouts are plotted for the BioMol library screen both with (+AO) and without (−AO) from Source Plate 1 (containing the Orphan Ligand, Ion Channel, Enzyme Inhibitor, and Endocannabanoid libraries, n=300). Each point for the DMSO controls, all compounds, and the Top 5% from Source Plate 1 (n=15) represents the average normalized fluorescence of 6 replicates in the −AO screen and 3 replicates in the +AO screen. […] Individual points for dantrolene are plotted with the bold horizontal line indicating the median. The short horizontal lines interspersed among the data points indicate 1, 2, and 3 standard deviations away from the DMSO treatment mean fluorescence.
In contrast to prior screens aimed at identifying small molecules which impact exon skipping, our screen is unique at least because it relies on robust quantitation of a skipping reporter in the context of a muscle lineage cell in the presence and absence of suboptimal AO. These screens were performed using a mouse muscle cell line (C2C12) expressing a human DMD exon 50 GFP based reporter selected to minimize experimental variation and sensitivity in the context of an automated and quantitative fluorescent scanning system.
AO was added prior to small molecule incubation in an effort to identify molecules that facilitate AO skipping rather than AO delivery. The fluorescence induced by each compound was normalized to a vehicle controls per plate to correct for plate to plate variability. Fluorescence was averaged across replicate plates (n=6 without AO screen, n=3 with AO screen). Compounds were rank ordered based on average intensity of fluorescence and difference between the without AO and with AO screen (FIG. 1 and Table 2).
A stable clone was generated from C2C12 cells transfected with a human exon 50 DMD GFP reporter (ex50GFP) that has been previously described. Ex50GFP reporter myoblasts were seeded into uncoated 384 well plates and were incubated for 4 hours either with or without 300 nM of 2′-O-methyl phosphorothioate AON6 [5′[…] 3′ (SEQ ID NO:1)] targeting the human exon 50 splice donor site. Cells were transfected with AON6 using the FUGENE (Roche) transfection reagent per manufacturer's instructions. Following AON6 incubation, each component of the BioMol library (n=503) was screened at 10 uM concentration with a final concentration of the DMSO carrier being 1%. Forty-eight hours later fluorescence was measured using the MicroXpress high content imager and analyzed using MetaXpress. Immediately preceding imaging, DNA was stained with Hoescht for 30 min. The BioMol screen without AO (−AO) was performed in 6 replicates, and the with AO (+AO) screen was performed in 3 replicates. For the screen analysis raw fluorescence values were normalized to carrier controls present on each plate by subtracting the values. Negative fluorescence values were set to 0. The data from each compound were averaged from all replicates. For secondary screening by 12 or 16 point dose response, Ex50GFP myoblasts or C2C12 cells without the reporter were seeded on uncoated 384 well plates. A sub-optimal dose of AON6 targeting DMD exon 50 was added for 4 hours.

The mark [1] stands for this setting: Without AON6 screen, compound 10 uM, 48 h, normalized to DMSO carrier controls.
Setting [2] is: Without AON6 screen, compound 10 uM, average of 6 replicate plates.
Setting [3] is: With AON6 screen, compound 10 uM, 48 h, fluorescence normalized by subtracting DMSO carrier controls.
Where [4] appears, read: With AON6 screen, compound 10 uM, 48 h, normalized to DMSO carrier controls.
The mark [5] stands for this setting: With AON6 screen, compound 10 uM.

As for `COC(=O)C1=C(C)NC(C)=C(C(=O)OCCCN2CCC(c3ccccc3)(c3ccccc3)CC2)[C@H]1c1cccc([N+](=O)[O-])c1` [NIGULDIPINE], the “Average Fluorescence (n = 6)” value was determined as 4.12, the “Fluorescence Plate 1” value was 5.07, the “Fluorescence Plate 2” value turned out to be 1.34 and the “Fluorescence Plate 3” value is listed as 3.34. Moreover, the “Fluorescence Plate 4” value is 8.06, the “Fluorescence Plate 5” value was determined as 6.06 and the “Fluorescence Plate 6” value was found to be 0.84.
For `COC[C@H]1OC(=O)c2coc3c2[C@@]1(C)C1=C(C3=O)[C@@H]2CCC(=O)[C@@]2(C)C[C@H]1OC(C)=O` [WORTMANNIN], under setting [1], the “Fluorescence Plate 1” value was 4.99, the “Fluorescence Plate 2” value came out at 3.07, the “Fluorescence Plate 3” value turned out to be 4.23 and the “Fluorescence Plate 4” value worked out at 5.92. Also, under setting [1], the “Fluorescence Plate 5” value was 6.44 and the “Fluorescence Plate 6” value is reported as 3.78. For the same molecule, under setting [2], the “Average Fluorescence (n = 6)” value is 4.74.
For the molecule `NCCNS(=O)(=O)c1cccc2cnccc12` [H-9], under setting [3], the “Fluorescence Plate 1” value is 18.09. Under setting [4], the “Fluorescence Plate 2” value was 19.17 and the “Fluorescence Plate 3” value worked out at 13.25. Also, under setting [5], the “Average Fluorescence (n = 3)” value was determined as 16.84.
Regarding `CCCCC/C=C\C/C=C\C/C=C\C/C=C\CCCCCC(=O)NCCc1ccc(O)c(O)c1` [Docosatetra-7Z,10Z,13Z,16Z-enoyl dopamine], the “Average Fluorescence (n = 6)” value stood at 4.71, the “Fluorescence Plate 1” value is listed as −1.65, the “Fluorescence Plate 2” value stood at 5.21 and the “Fluorescence Plate 3” value stood at 7.47. Besides, the “Fluorescence Plate 4” value is 2.30, the “Fluorescence Plate 5” value turned out to be 9.50 and the “Fluorescence Plate 6” value came to 5.44.
As for `COc1cc(/C=C(\C#N)C(N)=O)cc(CSc2nc3ccccc3s2)c1O` [AG-825], under setting [3], the “Fluorescence Plate 1” value is reported as 17.24. Besides, under setting [4], the “Fluorescence Plate 2” value is reported as 23.38 and the “Fluorescence Plate 3” value was 11.53. For the same molecule, under setting [5], the “Average Fluorescence (n = 3)” value is on record as 17.38.
For `COc1ccc2cc1Oc1ccc(cc1)C[C@H]1c3cc(c(OC)cc3CCN1C)Oc1c(OC)c(OC)cc3c1[C@H](C2)N(C)CC3` [TETRANDRINE], under setting [1], the “Fluorescence Plate 1” value is 3.15, the “Fluorescence Plate 2” value is listed as 2.41, the “Fluorescence Plate 3” value was found to be 5.39 and the “Fluorescence Plate 4” value is 4.64. Besides, under setting [1], the “Fluorescence Plate 5” value is recorded as 5.03 and the “Fluorescence Plate 6” value is 6.64. In addition, the “Average Fluorescence (n = 6)” value under setting [2] is on record as 4.54.
As to `N#C/C(=C\c1ccc(O)c(O)c1)C(N)=O` [TYRPHOSTIN 46], the “Fluorescence Plate 1” value under setting [3] is reported as 8.61. Under setting [4], the “Fluorescence Plate 2” value is on record as 30.70 and the “Fluorescence Plate 3” value came out at 14.09. In addition, under setting [5], the “Average Fluorescence (n = 3)” value is listed as 17.80.
As to `CCCCCCCC/C=C\CCCCCCCC(=O)NCCc1ccc(O)c(O)c1` [Oleoyl dopamine], under setting [1], the “Fluorescence Plate 1” value is 2.78, the “Fluorescence Plate 2” value is recorded as 1.51, the “Fluorescence Plate 3” value came out at 12.34 and the “Fluorescence Plate 4” value is 3.21. Also, under setting [1], the “Fluorescence Plate 5” value turned out to be 3.30 and the “Fluorescence Plate 6” value is 1.32. The “Average Fluorescence (n = 6)” value under setting [2] was 4.08.
For `C[C@@]12C(=O)OC(=O)[C@]1(C)[C@H]1CC[C@@H]2O1` [CANTHARIDIN], under setting [1], the “Fluorescence Plate 1” value is on record as 11.40, the “Fluorescence Plate 2” value is listed as −1.04, the “Fluorescence Plate 3” value is 0.63 and the “Fluorescence Plate 4” value is 5.55. Besides, under setting [1], the “Fluorescence Plate 5” value worked out at 4.34 and the “Fluorescence Plate 6” value is 4.45. In addition, under setting [2], the “Average Fluorescence (n = 6)” value is reported as 4.22.
For the molecule `N#CC(=C(N)Sc1ccccc1N)C(C#N)=C(N)Sc1ccccc1N` [U-0126], under setting [3], the “Fluorescence Plate 1” value is reported as 17.87. Also, under setting [4], the “Fluorescence Plate 2” value is on record as 35.65 and the “Fluorescence Plate 3” value came to 16.65. In addition, the “Average Fluorescence (n = 3)” value under setting [5] was found to be 23.39.
Taken in the same sequence, the figures for `CCN(CC)CCNC(=O)c1ccc(N)cc1` [PROCAINAMIDE] were 13.80, 19.66, 20.81 and 18.09.
`CC(C)(C)c1cc(/C=C(\C#N)C(N)=S)cc(C(C)(C)C)c1O` [AG-879]: under setting [1], the “Fluorescence Plate 1” value is listed as 1.23, the “Fluorescence Plate 2” value came to 3.24, the “Fluorescence Plate 3” value was found to be 3.46 and the “Fluorescence Plate 4” value was found to be 6.94. Under setting [1], the “Fluorescence Plate 5” value was 8.93 and the “Fluorescence Plate 6” value stood at 2.06. Further, the “Average Fluorescence (n = 6)” value under setting [2] is 4.31.
With `N#C/C(=C/c1ccc(O)c(O)c1)C(=O)NCc1ccccc1` [AG-490], under setting [3], the “Fluorescence Plate 1” value came to 7.17. Under setting [4], the “Fluorescence Plate 2” value is recorded as 30.27 and the “Fluorescence Plate 3” value was 13.54. Besides, the “Average Fluorescence (n = 3)” value under setting [5] is on record as 16.99.
Take INDIRUBIN: under setting [1], the “Fluorescence Plate 3” value is 6.43 and 6.44; the “Fluorescence Plate 5” value is 3.42 and 6.60. Further, the “Average Fluorescence (n = 6)” value under setting [2] was 17.88 and 8.26.
In the case of `COc1ccc2c3c([nH]c2c1)C(C)=NCC3.Cl` [HARMALINE HCl], under setting [3], the “Fluorescence Plate 1” value is 15.00. Further, under setting [4], the “Fluorescence Plate 2” value was found to be 42.55 and the “Fluorescence Plate 3” value worked out at 0.22. The “Average Fluorescence (n = 3)” value under setting [5] is recorded as 19.26. Under setting [1], the “Fluorescence Plate 1” value came to 31.97, the “Fluorescence Plate 2” value was found to be 27.56, the “Fluorescence Plate 3” value is listed as 27.06 and the “Fluorescence Plate 4” value was 22.50. Under setting [1], the “Fluorescence Plate 5” value turned out to be 16.09 and the “Fluorescence Plate 6” value came out at 19.75. Further, the “Average Fluorescence (n = 6)” value under setting [2] was 24.15.
With `CC(n1cc(C[C@H](N)C(=O)O)c2ccccc21)n1cc(C[C@H](N)C(=O)O)c2ccccc21`, the “Fluorescence Plate 1” value under setting [3] is given as 20.72. Further, under setting [4], the “Fluorescence Plate 2” value was 11.15 and the “Fluorescence Plate 3” value is given as 22.18. Besides, under setting [5], the “Average Fluorescence (n = 3)” value stood at 18.02.
On to `N#C/C(=C\c1ccc(O)c(O)c1)C(=O)Nc1ccccc1` [AG-494], for which the “Fluorescence Plate 1” value under setting [3] was 19.38. For the same molecule, under setting [4], the “Fluorescence Plate 2” value is 25.36 and the “Fluorescence Plate 3” value is listed as 25.25. Further, under setting [5], the “Average Fluorescence (n = 3)” value was determined as 23.33. Besides, under setting [1], the “Fluorescence Plate 1” value was 5.92, the “Fluorescence Plate 2” value stood at 1.23, the “Fluorescence Plate 3” value is reported as 1.65 and the “Fluorescence Plate 4” value came out at 7.58. Further, under setting [1], the “Fluorescence Plate 5” value amounted to 3.54 and the “Fluorescence Plate 6” value came to 5.26. The “Average Fluorescence (n = 6)” value under setting [2] is given as 4.20.
As to `Nc1ncnc2c1c(I)cn2[C@@H]1O[C@H](CO)C(O)C1O` (some centres unmarked) [5-IODOTUBERCIDIN], under setting [1], the “Fluorescence Plate 1” value is recorded as -0.41, the “Fluorescence Plate 2” value is reported as 6.65, the “Fluorescence Plate 3” value is reported as 9.13 and the “Fluorescence Plate 4” value is on record as 18.27. Under setting [1], the “Fluorescence Plate 5” value is on record as 30.70 and the “Fluorescence Plate 6” value was 6.10. Further, the “Average Fluorescence (n = 6)” value under setting [2] is reported as 11.74.
Take `N=C(NCc1ccc(Cl)c(Cl)c1)NC(=O)c1nc(Cl)c(N)nc1N` [DICHLOROBENZAMIL]: under setting [1], the “Fluorescence Plate 1” value turned out to be 22.19, the “Fluorescence Plate 2” value is recorded as 15.01, the “Fluorescence Plate 3” value is reported as 13.67 and the “Fluorescence Plate 4” value is 4.78. Besides, under setting [1], the “Fluorescence Plate 5” value was determined as 7.44 and the “Fluorescence Plate 6” value is on record as 6.66. For the same molecule, the “Average Fluorescence (n = 6)” value under setting [2] worked out at 11.63.
